Laboratory results published in patent publication US12428428B2, “Tricyclic tetrahydroisoquinoline derivative, preparation method therefor and application thereof in medicine” (JIANGSU HENGRUI MEDICINE CO., LTD., priority 2020, dated 2025).

Legend:
[1] = target: T1, CYP3A4 (Homo sapiens (Human), UniProt P08684); test: Inhibition of site of metabolism of testosterone in human liver microsome CYP3A4; assay type: in vitro ADME; conditions: testosterone substrate
Protocol: (§1) • 1. Phosphate buffer (20×PBS, purchased from Sangon); • 2. NADPH (ACROS, A2646-71-1); • 3. Human liver microsome (Corning Gentest, Cat No, 452161, Lot No. 905002, Donor36); • 4. ABI QTrap 4000 LC-MS System (AB Sciex); • 5. ZORBAX Extend-C18, 3×50 mm, 3.5 μm (Agilent, USA); • 6. CYP probe substrate (testosterone, Vocko, CAS No. [58-22-0]/75 μM) and positive control inhibitor (ketoconazole, SIGMA, Cat No. K1003-100MG).
(§2) A 100 mM PBS buffer was prepared. A 100 mM PBS buffer was prepared. A 0.25 mg/mL microsome solution, a 7.5 mM MgCl2 and a 5 mM NADPH solution were prepared using the buffer. A 30 mM stock solution was diluted with DMSO to obtain 30 mM, 10 mM, 3 mM, 1 mM, 0.3 mM, 0.03 mM, 0.003 mM and 0 mM serial solutions I, which were further diluted 200-fold with phosphate buffer (PBS) to obtain serial test solutions II (150, 50, 15, 5, 1.5, 0.15, 0.015 and 0 μM). A testosterone working solution was diluted with PBS to 375 μm.
(§3) 40 μL of a 0.25 mg/mL microsome solution prepared in 7.5 mM MgCl2 and 20 μL of each of the 375 μM testosterone working solution and the compound working solutions (150, 50, 15, 5, 1.5, 0.15, 0.015 and 0 μM) were measured out and well mixed. Ketoconazole at the same concentration was used in place of the compounds as a positive control group. The mixtures were pre-incubated […] at 37° C. for 5 min at the same time. After 5 minutes, 20 μL of NADPH was added to each well to start reactions. The mixtures were incubated for 30 min. After 30 minutes, 250 μL of internal standard-containing acetonitrile was added to all the samples. The mixtures were well mixed, shaken at 800 rpm for 10 min, and then centrifuged at 3700 rpm for 10 min. 100 μL of the supernatant and 80 μL of ultrapure water were well mixed and subjected to LC-MS/MS analysis.
The IC50 values of the drugs for the site of metabolism of testosterone in CYP3A4 were calculated using Graphpad Prism and are shown in Table 6.

[2] = target: T1, CYP3A4; test: Inhibition of site of metabolism of midazolam in human liver microsome CYP3A4; assay type: in vitro ADME; conditions: midazolam substrate
Protocol: as §1, with “9050002, Donor, 36);” for “905002, Donor36);”, “(midazolam, TRC, M343000/3” for “(testosterone, Vocko, CAS No. [58-22-0]/75”
as §2, with “A” for “A 100 mM PBS buffer was prepared. A”, “midazolam” for “testosterone”, “15 μM.” for “375 μm.”
as §3, with “of the 15 μM midazolam” for “of the 375 μM testosterone”, “15 μM midazolam working solution” for “375 μM testosterone working solution”, “30 min. Duplicate samples were set for all of the incubated samples. After 30” for “30 min. After 30”
The IC50 values of the drugs for the site of metabolism of midazolam in CYP3A4 were calculated using Graphpad Prism and are shown in Table 5.

[3] = target: hERG potassium channels (Homo sapiens (Human), UniProt Q12809); test: Blocking of hERG potassium currents (automated patch clamp, HEK293-hERG); assay type: cell-based; conditions: HEK293-hERG stable cell strain
Sequence of hERG potassium channels (Q12809 whole entry): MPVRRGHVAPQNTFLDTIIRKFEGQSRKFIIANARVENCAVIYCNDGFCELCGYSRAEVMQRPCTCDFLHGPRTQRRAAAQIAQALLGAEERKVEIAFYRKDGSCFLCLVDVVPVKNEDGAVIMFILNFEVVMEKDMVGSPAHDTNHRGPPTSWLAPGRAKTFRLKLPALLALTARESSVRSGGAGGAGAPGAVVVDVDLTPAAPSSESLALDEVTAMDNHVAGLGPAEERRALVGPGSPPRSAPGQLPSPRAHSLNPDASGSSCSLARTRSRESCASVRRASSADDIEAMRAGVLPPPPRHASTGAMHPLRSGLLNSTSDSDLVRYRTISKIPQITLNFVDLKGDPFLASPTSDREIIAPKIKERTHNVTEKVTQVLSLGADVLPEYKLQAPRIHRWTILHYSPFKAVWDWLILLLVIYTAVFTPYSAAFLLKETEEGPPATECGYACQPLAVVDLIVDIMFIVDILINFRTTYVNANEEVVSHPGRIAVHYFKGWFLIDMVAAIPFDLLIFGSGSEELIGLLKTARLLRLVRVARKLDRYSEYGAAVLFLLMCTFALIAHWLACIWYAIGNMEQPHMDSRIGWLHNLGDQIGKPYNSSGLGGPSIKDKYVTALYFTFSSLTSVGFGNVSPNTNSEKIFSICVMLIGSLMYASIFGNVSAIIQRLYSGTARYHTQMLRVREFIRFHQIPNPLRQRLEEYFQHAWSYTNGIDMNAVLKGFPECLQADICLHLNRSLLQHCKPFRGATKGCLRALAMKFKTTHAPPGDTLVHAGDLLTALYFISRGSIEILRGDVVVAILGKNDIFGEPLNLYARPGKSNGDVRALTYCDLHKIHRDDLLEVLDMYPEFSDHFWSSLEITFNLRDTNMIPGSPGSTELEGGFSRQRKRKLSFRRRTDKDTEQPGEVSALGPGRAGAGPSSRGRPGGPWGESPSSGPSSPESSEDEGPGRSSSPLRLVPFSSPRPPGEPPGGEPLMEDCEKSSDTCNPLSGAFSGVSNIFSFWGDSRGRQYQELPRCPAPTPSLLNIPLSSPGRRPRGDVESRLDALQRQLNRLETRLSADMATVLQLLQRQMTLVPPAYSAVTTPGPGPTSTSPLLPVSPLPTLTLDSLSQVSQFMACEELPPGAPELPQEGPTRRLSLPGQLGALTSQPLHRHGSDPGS
Protocol: The blocking of hERG potassium currents by the compounds disclosed herein was tested in a stable cell strain transfected with hERG potassium channels using automated patch clamp.
An HEK293-hERG stable cell strain was subcultured in an MEM/EBSS medium (10% FBS, 400 μg/mL G418, 1% MEM non-essential amino acid solution (100×), 1% sodium pyruvate solution) at a density of 1:4, and an automated patch clamp experiment was conducted between hour 48 and hour 72 after the start of the culture. On the day of the experiment, the cells were digested with 0.25% trypsin, then centrifuged, collected, and resuspended in an extracellular fluid (140 mM NaCl, 4 mM KCl, 1 mM MgCl2, 2 mM CaCl2), 5 mM D-glucose monohydrate, 10 mM Hepes, pH 7.4, 298 mOsm) to form a cell suspension. The cell suspension was placed on the cell bank of the Patchliner instrument, which then applied the cells to a chip (NPC-16) by means of a negative pressure controller. The negative pressure drew individual cells to the wells of the chip. […] Data were recorded and analyzed using the HEAK Patchmaster, HEAK EPC10 patch clamp amplifier (Nanion), Pathliner software and Pathcontrol HT software, and the currents of the compounds at each concentration and the current of the blank control were analyzed.

T1 sequence (P08684 whole entry): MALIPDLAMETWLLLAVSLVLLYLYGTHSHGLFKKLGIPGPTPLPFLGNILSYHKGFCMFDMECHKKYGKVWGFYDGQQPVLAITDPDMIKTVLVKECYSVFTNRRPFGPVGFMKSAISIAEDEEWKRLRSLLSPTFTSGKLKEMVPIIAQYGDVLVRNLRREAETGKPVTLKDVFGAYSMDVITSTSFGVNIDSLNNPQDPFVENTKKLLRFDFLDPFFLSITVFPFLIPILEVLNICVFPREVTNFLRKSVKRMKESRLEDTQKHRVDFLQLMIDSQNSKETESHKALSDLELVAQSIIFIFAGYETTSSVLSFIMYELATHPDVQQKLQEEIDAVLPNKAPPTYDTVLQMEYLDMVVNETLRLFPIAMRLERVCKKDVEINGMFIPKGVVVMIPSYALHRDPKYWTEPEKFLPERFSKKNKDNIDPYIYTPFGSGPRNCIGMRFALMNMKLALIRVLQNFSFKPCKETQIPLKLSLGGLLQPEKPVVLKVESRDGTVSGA

Compound	IC50 [1] [µM]	IC50 [2] [µM]	IC50 [3] [µM]
C[C@@H]1Cc2cc3c(cc2[C@@H](c2ccc(N[C@H]4CCN(CCCF)C4)cc2)N1CC(F)(F)CO)OCO3 [Example 3, 2,2-Difluoro-3-((5R,7R)-5-(4-(((S)-1-(3-fluoropropyl)pyrrolidin-3-yl)amino)phenyl)-7-methyl-7,8-dihydro-[1,3]dioxolo[4,5-g]isoquinolin-6(5H)-yl)propan-1-ol]	14.6	10	–
[2H]C1([2H])Oc2cc3c(cc2O1)[C@@H](c1ccc(N[C@H]2CCN(CCCF)C2)cn1)N(CC(F)(F)CO)[C@H](C)C3 [Example 12, 2,2-Difluoro-3-((5S,7R)-5-(5-(((S)-1-(3-fluoropropyl)pyrrolidin-3-yl)amino)pyridin-2-yl)-7-methyl-7,8-dihydro-[1,3]dioxolo[4,5-g]isoquinolin-6(5H)-yl-2,2-d2)propan-1-ol]	23.8	8.18	> 30
C[C@@H]1Cc2cc3c(cc2[C@@H](c2ccc(N[C@H]4CCN(CCCF)C4)cn2)N1CC(F)(F)CO)OCO3 [Example 4, 2,2-Difluoro-3-((5S,7R)-5-(5-(((S)-1-(3-fluoropropyl)pyrrolidin-3-yl)amino)pyridin-2-yl)-7-methyl-7,8-dihydro-[1,3]dioxolo[4,5-g]isoquinolin-6(5H)-yl)propan-1-ol]	15.5	–	–
C[C@@H]1Cc2cc3c(cc2[C@@H](c2c(F)cc(N[C@H]4CCN(CCCF)C4)cc2F)N1CC(F)(F)F)OCO3 [Example 2, (S)—N-(3,5-difluoro-4-((5S,7R)-7-methyl-6-(2,2,2-trifluoroethyl)-5,6,7,8-tetrahydro-[1,3]dioxolo[4,5-g]isoquinolin-5-yl)phenyl)-1-(3-fluoropropyl)pyrrolidin-3-amine]	> 30	> 30	–
C[C@@H]1Cc2cc3c(cc2[C@@H](c2ncc(N[C@H]4CCN(CCCF)C4)cc2F)N1CC(F)(F)CO)OCO3 [Example 11, 2,2-Difluoro-3-((5S,7R)-5-(3-fluoro-5-(((S)-1-(3-fluoropropyl)pyrrolidin-3-yl)amino)pyridin-2-yl)-7-methyl-7,8-dihydro-[1,3]dioxolo[4,5-g]isoquinolin-6(5H)-yl)propan-1-ol]	–	–	> 30
C[C@@H]1Cc2cc3c(cc2[C@@H](c2ccc(N[C@H]4CCN(CCCF)C4)cc2)N1CC(F)(F)F)OCO3 [Example 1, (S)-1-(3-fluoropropyl)-N-(4-((5R,7R)-7-methyl-6-(2,2,2-trifluoroethyl)-5,6,7,8-tetrahydro-[1,3]dioxolo[4,5-g]isoquinolin-5-yl)phenyl)pyrrolidin-3-amine]	7.31	15.8	–
